Laboratory results reported in ChEMBL document CHEMBL1799917, “Isolation, sequencing, and structure-activity relationships of cyclotides” (J Nat Prod, 2010).
In brackets after ≈: the same amount, converted by molar mass. Where a SMILES comes first, the peptide text is derived from it. Bridges are numbered along the chain shown (N, C = ends). [ ]: non-standard residue; d: D form. aThr = C[C@H](O)[C@H](N)C(=O)O

Experiments:
CEM-SS (Homo sapiens) = test: Cytotoxicity against human CEM-SS cells
Staphylococcus aureus = test: Antimicrobial activity against Staphylococcus aureus ATCC 29213; assay type: functional
Kluyveromyces marxianus = test: Antimicrobial activity against Candida kefyr ATCC 37095; assay type: functional
Proteus vulgaris = test: Antimicrobial activity against Proteus vulgaris ATCC 49132; assay type: functional
Candida tropicalis = test: Antimicrobial activity against Candida tropicalis ATCC 37097; assay type: functional
[1] = Hemolytic activity in human type A RBC; assay type: ADME, cell-based, Erythrocyte; conditions: human type A red blood cells, read-out: HD50 (the source's name)
[2] = Cytotoxicity against human 8226/LR-5 cells after 72 hrs by fluorometric microculture cytotoxicity assay; assay type: functional, cell-based
ACHN = test: Cytotoxicity against human ACHN cells after 72 hrs by fluorometric microculture cytotoxicity assay; assay type: functional, cell-based
U-937/GTB = test: Cytotoxicity against human U937/GTB cells after 72 hrs by fluorometric microculture cytotoxicity assay; assay type: functional, cell-based
U-937 = test: Cytotoxicity against human vincristine-resistant U937 cells after 72 hrs by fluorometric microculture cytotoxicity assay; assay type: functional, cell-based; conditions: U-937, 72 h
[3] = Cytotoxicity against human 8226/DOX40 cells after 72 hrs by fluorometric microculture cytotoxicity assay; assay type: functional, cell-based
[4] = Cytotoxicity against human CEM/VM1 cells after 72 hrs by fluorometric microculture cytotoxicity assay; assay type: functional, cell-based; conditions: CEM-VM1, 72 h
R1 = test: Cytotoxicity against mouse R1 cells after 72 hrs by fluorometric microculture cytotoxicity assay; assay type: cell-based; conditions: R1, 72 h
RPMI-8226 = test: Cytotoxicity against human RPMI8226/S cells after 72 hrs by fluorometric microculture cytotoxicity assay; assay type: functional, cell-based
CCRF-CEM = test: Cytotoxicity against human CCRF-CEM cells after 72 hrs by fluorometric microculture cytotoxicity assay; assay type: functional, cell-based
[5] = Hemolytic activity in human type A RBC assessed as concentration required to cause 11% hemolysis after 1 hr by microtitre plate; assay type: ADME, cell-based; conditions: erythrocyte
Escherichia coli = test: Antimicrobial activity against Escherichia coli ATCC 25922; assay type: functional
Pseudomonas aeruginosa = test: Antimicrobial activity against Pseudomonas aeruginosa ATCC 27853; assay type: functional
Klebsiella oxytoca = test: Antimicrobial activity against Klebsiella oxytoca ATCC 49131; assay type: functional
[6] = tested on: Human immunodeficiency virus 1; test: Antiviral activity against HIV1; assay type: functional, organism-based
[7] = tested on: Human immunodeficiency virus 1; test: Antiviral activity against HIV1 infected in human CEM-SS cells assessed as protection against virus-induced cytopathic effect by XTT method; assay type: functional, organism-based; conditions: Human immunodeficiency virus 1, CEM-SS

Structure (SMILES): CC[C@H](C)[C@@H]1NC(=O)[C@@H]2CSSC[C@@H]3NC(=O)[C@H](C(C)C)NC(=O)[C@H](CCCCN)NC(=O)[C@H](CC(N)=O)NC(=O)[C@H](CCCCN)NC(=O)[C@@H]4CSSC[C@H](NC(=O)[C@H](CO)NC(=O)[C@H](CCC(=O)O)NC(=O)CNC(=O)[C@H](CSSC[C@H](NC(=O)CNC(=O)[C@H](CC(C)C)NC(=O)[C@H](C)NC(=O)[C@H](C)NC(=O)[C@H](CO)NC1=O)C(=O)N[C@@H](CO)C(=O)N4)NC(=O)[C@@H]1CCCN1C(=O)[C@H]([C@@H](C)CC)NC(=O)CNC(=O)[C@H](CC(N)=O)NC(=O)[C@H](CCCNC(=N)N)NC(=O)[C@H](Cc1ccc(O)cc1)NC3=O)C(=O)N[C@@H](C(C)C)C(=O)N[C@@H](Cc1c[nH]c3ccccc13)C(=O)N[C@@H]([C@@H](C)CC)C(=O)N1CCC[C@H]1C(=O)N2 [CIRCULIN A] (cyclo(AALGCSCKNKVCYRNGIPCGESCVWIPCIS); disulfide 5-19, 7-23, 12-28)
- IC50 (CEM-SS (Homo sapiens)): 0.5 µM
- MIC (Staphylococcus aureus): 0.19 µM (≈ 0.599 µg/mL)
- MIC (Kluyveromyces marxianus): 18.6 µM (≈ 58.6 µg/mL)
- MIC (Proteus vulgaris): 54.6 µM (≈ 172 µg/mL)
- MIC (Candida tropicalis): 19.4 µM (≈ 61.1 µg/mL)
- HC50 [1]: 1020 µM

Structure (SMILES): CC[C@H](C)[C@@H]1NC(=O)[C@@H]2CCCN2C(=O)[C@H](C(C)C)NC(=O)CNC(=O)[C@H](CC(N)=O)NC(=O)[C@H](CCCNC(=N)N)NC(=O)[C@H]([C@@H](C)O)NC(=O)[C@@H]2CSSC[C@@H]3NC(=O)[C@H]([C@@H](C)O)NC(=O)CNC(=O)[C@H](CC(C)C)NC(=O)[C@H]([C@@H](C)O)NC(=O)[C@@H]4CSSC[C@H](NC(=O)[C@H](CO)NC(=O)[C@H](CSSC[C@H](NC1=O)C(=O)NCC(=O)N[C@@H](CCC(=O)O)C(=O)N[C@@H]([C@@H](C)O)C(=O)N4)NC(=O)CNC(=O)[C@H](C)NC(=O)[C@H]([C@@H](C)O)NC(=O)[C@H](Cc1ccc(O)cc1)NC3=O)C(=O)N[C@@H](CO)C(=O)N[C@@H](Cc1c[nH]c3ccccc13)C(=O)N1CCC[C@H]1C(=O)N[C@@H](C(C)C)C(=O)N2 (cyclo(AGCSCSWPVCTRNGVPICGETCTLGTCYT); disulfide 3-18, 5-22, 10-27)
- IC50 [2]: 2.63 µM
- IC50 (ACHN): 2.63 µM
- IC50 (U-937/GTB): 2.63 µM
- IC50 (U-937): 2.63 µM
- IC50 [3]: 2.63 µM
- IC50 [4]: 2.63 µM
- IC50 (R1): 2.63 µM
- IC50 (RPMI-8226): 2.63 µM
- IC50 (CCRF-CEM): 2.63 µM

Structure (SMILES): CC[C@H](C)[C@@H]1NC(=O)[C@@H]2CCCN2C(=O)[C@H](Cc2ccc(O)cc2)NC(=O)[C@H](CO)NC(=O)[C@@H]2CSSC[C@@H]3NC(=O)[C@H]([C@@H](C)O)NC(=O)[C@H](CCC(=O)O)NC(=O)CNC(=O)[C@@H]4CSSC[C@H](NC(=O)CNC(=O)[C@@H]5CCCN5C(=O)[C@H]([C@@H](C)O)NC(=O)[C@H](Cc5ccc(O)cc5)NC(=O)[C@H](CSSC[C@H](NC1=O)C(=O)N[C@@H](CCCCN)C(=O)N[C@@H](CCCCN)C(=O)N[C@@H](CC(N)=O)C(=O)NCC(=O)N[C@@H](CC(C)C)C(=O)N[C@@H](C(C)C)C(=O)N1CCC[C@H]1C(=O)N4)NC(=O)[C@H](CCCCN)NC(=O)CNC(=O)[C@H]([C@@H](C)O)NC(=O)[C@H](Cc1ccccc1)NC3=O)C(=O)N[C@@H](CO)C(=O)N2 [CYCLOVIOLACIN O15] (cyclo(CFTGKCYTPGCSCSYPICKKNGLVPCGET); disulfide 1-13, 6-18, 11-26)
- Activity [5]: 25 µM

Structure (SMILES): CC[C@H](C)[C@@H]1NC(=O)[C@@H]2CCCN2C(=O)[C@H](CS)NC(=O)CNC(=O)[C@H](CCC(=O)O)NC(=O)[C@H](CO)NC(=O)[C@H](CS)NC(=O)[C@H](C(C)C)NC(=O)[C@H](Cc2ccccc2)NC(=O)[C@H]([C@@H](C)CC)NC(=O)[C@@H]2CCCN2C(=O)[C@H](CS)NC(=O)[C@H]([C@H](C)O)NC(=O)[C@H](C(C)C)NC(=O)[C@H]([C@H](C)O)NC(=O)[C@H](C)NC(=O)[C@H](CC(C)C)NC(=O)[C@H](CC(C)C)NC(=O)CNC(=O)[C@H](CS)NC(=O)[C@H](CO)NC(=O)[C@H](CS)NC(=O)[C@H](CCCCN)NC(=O)[C@H](CO)NC(=O)[C@H](CCCCN)NC(=O)[C@H](C(C)C)NC(=O)[C@H](CS)NC(=O)[C@H](Cc2ccc(O)cc2)NC(=O)[C@H](CCCCN)NC(=O)[C@H](CC(N)=O)NC(=O)[C@H](CO)NC1=O [CYCLOPSYCHOTRIDE A] (cyclo(A[aThr]V[aThr]CPIFVCSEGCPISNKYCVKSKCSCGLL))
- MIC (Escherichia coli): 1.55 µM (≈ 5.02 µg/mL)
- MIC (Pseudomonas aeruginosa): 13.5 µM (≈ 43.7 µg/mL)
- MIC (Staphylococcus aureus): 39 µM (≈ 126 µg/mL)
- MIC (Kluyveromyces marxianus): 14 µM (≈ 45.3 µg/mL)
- MIC (Proteus vulgaris): 13.2 µM (≈ 42.7 µg/mL)
- MIC (Candida tropicalis): 56.5 µM (≈ 183 µg/mL)
- MIC (Klebsiella oxytoca): 5.8 µM (≈ 18.8 µg/mL)
- HC50 [1]: 405 µM

Structure (SMILES): CC[C@H](C)[C@@H]1NC(=O)[C@@H]2CSSC[C@@H]3NC(=O)[C@H](C(C)C)NC(=O)[C@H](CCCCN)NC(=O)[C@H](CC(N)=O)NC(=O)[C@H](CCCCN)NC(=O)[C@@H]4CSSC[C@H](NC(=O)[C@H](CO)NC(=O)[C@H](CCC(=O)O)NC(=O)CNC(=O)[C@H](CSSC[C@H](NC(=O)CNC(=O)[C@H](CC(C)C)NC(=O)[C@H](CC(C)C)NC(=O)[C@H]([C@@H](C)O)NC(=O)[C@H](CO)NC1=O)C(=O)N[C@@H](CO)C(=O)N4)NC(=O)[C@@H]1CCCN1C(=O)[C@H]([C@@H](C)CC)NC(=O)[C@H](C(C)C)NC(=O)CNC(=O)[C@H](CC(N)=O)NC(=O)[C@H](CCCNC(=N)N)NC(=O)[C@H](Cc1ccc(O)cc1)NC3=O)C(=O)N[C@@H](C(C)C)C(=O)N[C@@H](Cc1ccccc1)C(=O)N[C@@H]([C@@H](C)CC)C(=O)N1CCC[C@H]1C(=O)N2 [CIRCULIN B] (cyclo(CGESCVFIPCISTLLGCSCKNKVCYRNGVIP); disulfide 1-17, 5-19, 10-24)
- MIC (Escherichia coli): 0.41 µM (≈ 1.35 µg/mL)
- IC50 (CEM-SS (Homo sapiens)): 0.5 µM
- MIC (Pseudomonas aeruginosa): 25.5 µM (≈ 83.7 µg/mL)
- MIC (Staphylococcus aureus): 13.5 µM (≈ 44.3 µg/mL)
- IC50 (R1): 820 µM
- MIC (Kluyveromyces marxianus): 29 µM (≈ 95.2 µg/mL)
- MIC (Proteus vulgaris): 6.8 µM (≈ 22.3 µg/mL)
- MIC (Klebsiella oxytoca): 8.2 µM (≈ 26.9 µg/mL)
- HC50 [1]: 550 µM

Structure (SMILES): CC[C@H](C)[C@@H]1NC(=O)[C@H](C)NC(=O)[C@H](C)NC(=O)[C@H](CO)NC(=O)[C@H]([C@@H](C)CC)NC(=O)[C@@H]2CSSC[C@@H]3NC(=O)[C@H](C(C)C)NC(=O)[C@H](CCCCN)NC(=O)[C@H](CC(N)=O)NC(=O)[C@H](CCCCN)NC(=O)[C@@H]4CSSC[C@H](NC(=O)[C@H](CO)NC(=O)[C@H](CCC(=O)O)NC(=O)CNC(=O)[C@H](CSSC[C@H](NC(=O)CNC1=O)C(=O)N[C@@H](CO)C(=O)N4)NC(=O)[C@@H]1CCCN1C(=O)[C@H]([C@@H](C)CC)NC(=O)[C@H](C(C)C)NC(=O)CNC(=O)[C@H](CC(N)=O)NC(=O)[C@H](CCCNC(=N)N)NC(=O)[C@H](Cc1ccc(O)cc1)NC3=O)C(=O)N[C@@H](C(C)C)C(=O)N[C@@H](Cc1ccccc1)C(=O)N[C@@H]([C@@H](C)CC)C(=O)N1CCC[C@H]1C(=O)N2 [CYCLOVIOLN A] (cyclo(AAIGCSCKNKVCYRNGVIPCGESCVFIPCIS); disulfide 5-20, 7-24, 12-29)
- IC50 (CEM-SS (Homo sapiens)): 0.56 µM
- EC50 [6]: 0.13 µM

Structure (SMILES): CC[C@H](C)[C@@H]1NC(=O)[C@H](CCSC)NC(=O)[C@H](C)NC(=O)[C@@H]2CSSC[C@@H]3NC(=O)[C@H](CO)NC(=O)[C@@H]4CSSC[C@H](NC(=O)[C@H](CO)NC(=O)[C@H]([C@@H](C)CC)NC(=O)[C@H](CO)NC(=O)[C@H](CC(N)=O)NC(=O)[C@H](CC(C)C)NC(=O)[C@H](Cc5ccc(O)cc5)NC(=O)[C@H](CSSC[C@H](NC(=O)[C@H](Cc5ccccc5)NC(=O)[C@H](CO)NC1=O)C(=O)N[C@@H](Cc1ccccc1)C(=O)N[C@@H]([C@@H](C)O)C(=O)N[C@@H](CCC(=O)O)C(=O)N[C@@H](C(C)C)C(=O)N[C@@H]([C@@H](C)CC)C(=O)NCC(=O)N4)NC(=O)[C@H](C(C)C)NC(=O)[C@H](CCCCN)NC(=O)[C@H](CC(N)=O)NC(=O)[C@H](CCCCN)NC3=O)C(=O)NCC(=O)N[C@@H](CCC(=O)O)C(=O)N[C@@H](CO)C(=O)N2 (cyclo(AMISFCFTEVIGCSCKNKVCYLNSISCGESC); disulfide 6-20, 13-27, 15-31)
- EC50 [7]: 0.87 µM

Structure (SMILES): CC[C@H](C)[C@@H]1NC(=O)[C@H](CO)NC(=O)CNC(=O)[C@H](CC(N)=O)NC(=O)[C@H](CCCCN)NC(=O)[C@H](C)NC(=O)[C@@H]2CSSC[C@@H]3NC(=O)[C@H](CCCCN)NC(=O)CNC(=O)[C@H](C)NC(=O)[C@H](Cc4ccccc4)NC(=O)[C@@H]4CSSC[C@H](NC(=O)[C@H](CO)NC(=O)[C@H](CSSC[C@H](NC(=O)[C@H](C)NC(=O)[C@@H]5CCCN5C1=O)C(=O)NCC(=O)N[C@@H](CCC(=O)O)C(=O)N[C@@H](CO)C(=O)N4)NC(=O)CNC(=O)[C@@H]1CCCN1C(=O)[C@H]([C@@H](C)O)NC(=O)[C@H](Cc1ccc(O)cc1)NC3=O)C(=O)N[C@@H](CO)C(=O)N[C@@H](CCCCN)C(=O)N[C@@H](Cc1ccc(O)cc1)C(=O)N1CCC[C@H]1C(=O)N[C@@H](CC(C)C)C(=O)N2 [CYCLOVIOLACIN O14] (cyclo(ACGESCFAGKCYTPGCSCSKYPLCAKNGSIP); disulfide 2-16, 6-18, 11-24)
- Activity [5]: 25 µM
